# According to patent publication US12661338B2, “Heterocyclic compounds as modulators of beta-catenin / TCF4 interaction” (AGENCY FOR SCIENCE, TECHNOLOGY AND RESEARCH, priority 2019, dated 2026):
# Columns and labels:
# CRC2367 = assay: Viability of primary patient-derived colorectal cancer cell line; assay type: cell-based
# CRC1671 = assay: as above; assay type: cell-based
# STF3A cells = assay: Viability (toxicity) of STF3A reporter cells, CCK-8; assay type: cell-based; conditions: Table 3; STF3A reporter cell line
# Experimental: The Wnt STF3A reporter cells were seeded as 20,000 cells in 100 μL culture medium per well in 96-well plates (Corning cat. #3903, Falcon cat. #353072). The next day, 5-fold dilutions of the compounds in DMSO were added to the cells at a final concentration of 1% DMSO. After 24 hr incubation, the viability of the cells was determined with cell counting kit-8 (CCK-8, Dojindo cat. #CK04) cell viability reagent according to the manufacturer's protocol while the TOPFlash reporter activity was determined with Steady-Glo luciferase reagent.
# The average signal from DMSO treated wells was calculated for each plate, and the signal from each treatment well was normalized against the average DMSO signal from the respective plate. The normalized values were plotted against the concentrations tested using GraphPad Prism 5, and the EC50 values were determined through either three- or four-parameter nonlinear regression.
# [1] = target: T1, β-cat / GST-TCF4 N-terminal domain interaction (Homo sapiens, UniProt P35222); assay: SPR inhibition of β-cat-TCF4 interaction; assay type: binding; conditions: SPR competition, 50 nM β-cat pre-incubated 15 min, n=2; read-out: IC50 inhibition of interaction between β-cat and TCF4
# T1 construct: His-tagged human β-cat (134-668); made in house; host or cells: E. coli BL21(DE3)
# T1 sequence (P35222 134-668): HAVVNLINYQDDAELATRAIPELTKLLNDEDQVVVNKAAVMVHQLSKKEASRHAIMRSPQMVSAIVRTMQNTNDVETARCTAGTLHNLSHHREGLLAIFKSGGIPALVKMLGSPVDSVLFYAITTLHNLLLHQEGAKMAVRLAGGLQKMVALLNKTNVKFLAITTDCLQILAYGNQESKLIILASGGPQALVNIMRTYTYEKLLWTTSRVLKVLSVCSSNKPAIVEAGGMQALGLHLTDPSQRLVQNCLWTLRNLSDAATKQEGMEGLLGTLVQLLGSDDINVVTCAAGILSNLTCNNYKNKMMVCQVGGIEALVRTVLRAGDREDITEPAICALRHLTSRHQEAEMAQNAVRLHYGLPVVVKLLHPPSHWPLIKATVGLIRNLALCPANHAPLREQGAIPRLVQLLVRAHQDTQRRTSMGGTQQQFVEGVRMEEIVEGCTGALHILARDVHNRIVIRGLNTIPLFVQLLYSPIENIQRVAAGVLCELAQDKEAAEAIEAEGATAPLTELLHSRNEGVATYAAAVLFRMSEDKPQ
# Experimental: BL21(DE3) cells harboring pET-28 β-cat expression vector of His-tagged human β-cat (134-668) were cultured at 37° C. until OD600=0.6-0.8. The cells were then induced with 500 μM isopropyl-β-D-thiogalactopyranoside (IPTG) for 6-8 hr at 23° C. Cells were lysed by sonication in lysis buffer containing 20 mM Tris (pH 8.8), 250 mM NaCl, 2 mM DTT, 5% glycerol, 0.1% Triton X-100, and cOmplete protease inhibitor cocktail (EDTA free, Roche cat. #11873580001). The lysate was incubated with Ni-NTA agarose beads (Qiagen cat. #30210) at 4° C. for 1 hr, and the beads were then washed with lysis buffer containing 20 mM imidazole. Bound protein was eluted with buffer containing 20 mM Tris (pH 8.8), 250 mM NaCl, 0.5 mM tris(2-carboxyethyl)phosphine (TCEP), 5% glycerol, and 250 mM imidazole.
# GST-tagged TCF4 N-terminal domain was expressed similarly in BL21(DE3) cells, induced for 2-4 hr at 23° C. with IPTG, and purified from glutathione agarose beads (Pierce cat. #16100) using buffer containing 20 mM Tris (pH 8.8), 250 mM NaCl, 0.5 mM TCEP, 5% glycerol, and 10 mM reduced glutathione.
# GST-tag TCF4 N-terminal domain (31 kDa, >90% pure based on SDS-PAGE) was immobilized on a CM5 series S sensor chip using amine-coupling chemistry. […]
# CRC1775 = assay: Viability of primary patient-derived colorectal cancer cell line; assay type: cell-based
# HCT116 cells = assay: Spheroid formation assay; assay type: cell-based; conditions: HCT116, 30 μM
# Experimental: HCT116, DLD-1, and SW480 cells were seeded as 150 cells in 200 μL spheroid medium per well in 96-well ultra-low attachment plates (Corning cat. #3474). The compounds were added on the day of cell seeding at a final concentration of 30 μM, 0.5% DMSO. The cells were grown at 37° C., 5% CO2 and images of the spheroids formed were taken on days 7 and 10 after cell seeding using the Operetta CLS system (Perkin Elmer).
smiles,measurement,setting,value
CCc1ccc(OCc2nnc(SC3CCCC3=O)n2C(C)c2ccccc2)cc1 (stereo not drawn) [GB1874],EC50,CRC2367,20 µM
same,EC50,CRC1671,30 µM
same,IC50,STF3A cells,64 µM
same,IC50,[1],25 ± 8 µM
same,EC50,CRC1775,74 µM
same,spheroid formation,HCT116 cells,markedly reduce survival of the cancer stem-like cells
